# Calls of active or inactive are those of the source. The calls are words filed in the database; no cut-off is given here.
# What was measured:
# [1] = test system: Trypanosoma brucei rhodesiense; assay: Antitrypanosomal activity against melasoprol-resistant Trypanosoma brucei rhodesiense STIB900 by Alamar blue assay; type: functional, organism-based
# [2] = test system: Trypanosoma brucei gambiense; assay: Ratio of IC50 for Trypanosoma brucei gambiense K03048 to IC50 for Trypanosoma brucei gambiense STIB930; type: functional
# [3] = test system: Trypanosoma brucei rhodesiense; assay: Antitrypanosomal activity against pentamidine-resistant Trypanosoma brucei rhodesiense STIB900 by Alamar blue assay; type: functional, organism-based
# [4] = Ratio of IC50 for Trypanosoma brucei gambiense K03048 to IC50 for wild-type Trypanosoma brucei rhodesiense STIB900; type: functional
# [5] = Ratio of IC50 for Trypanosoma brucei gambiense STIB930 to IC50 for wild-type Trypanosoma brucei rhodesiense […]; type: functional
# [6] = test system: Trypanosoma brucei gambiense; assay: Antitrypanosomal activity against Trypanosoma brucei gambiense K03048 by Alamar blue assay; type: functional, organism-based
# [7] = test system: Trypanosoma brucei rhodesiense; assay: Ratio of IC50 for pentamidine-resistant Trypanosoma brucei rhodesiense STIB900 to IC50 for wild-type Trypanosoma brucei rhodesiense STIB900; type: functional
# [8] = test system: Trypanosoma brucei rhodesiense; assay: Antitrypanosomal activity against wild-type Trypanosoma brucei rhodesiense STIB900 by Alamar blue assay; type: functional, organism-based
# [9] = test system: Trypanosoma brucei gambiense; assay: Antitrypanosomal activity against Trypanosoma brucei gambiense ITMAP141267 by Alamar blue assay; type: functional, organism-based
# [10] = test system: Trypanosoma brucei brucei; assay: Antitrypanosomal activity against Trypanosoma brucei brucei AT1KO by Alamar blue assay; type: functional, organism-based
# [11] = test system: Trypanosoma brucei rhodesiense; assay: Ratio of IC50 for melasoprol-resistant Trypanosoma brucei rhodesiense STIB900 to IC50 for wild-type Trypanosoma brucei rhodesiense […]; type: functional
# [12] = test system: Trypanosoma brucei brucei; assay: Antitrypanosomal activity against Trypanosoma brucei brucei BS221 by Alamar blue assay; type: functional, organism-based
# [13] = test system: Trypanosoma brucei gambiense; assay: Antitrypanosomal activity against Trypanosoma brucei gambiense STIB930 by Alamar blue assay; type: functional, organism-based
# [14] = test system: Trypanosoma brucei brucei; assay: Ratio of IC50 for Trypanosoma brucei brucei AT1KO to IC50 for Trypanosoma brucei brucei BS221; type: functional
# [15] = Ratio of IC50 for Trypanosoma brucei gambiense ITMAP141267 to IC50 for wild-type Trypanosoma brucei rhodesiense […]; type: functional
# [16] = test system: Trypanosoma brucei rhodesiense; assay: Antitrypanosomal activity against wild-type Trypanosoma brucei rhodesiense STIB900 infected in NMRI mouse assessed as cure from infection at 0.5 mg/kg, ip for 4 days; type: functional, organism-based; design: dose 0.5 mg/kg
# [17] = test system: Trypanosoma brucei brucei; assay: Antitrypanosomal activity against Trypanosoma brucei brucei GVR35 infected in NMRI mouse CNS model assessed as cure from infection at 20 mg/kg, ip for 5 days; type: functional, organism-based; design: dose 20 mg/kg
# [18] = test system: Trypanosoma brucei rhodesiense; assay: Antitrypanosomal activity against wild-type Trypanosoma brucei rhodesiense STIB900 infected in NMRI mouse assessed as survival of mouse at 2.5 mg/kg, ip for 4 days; type: functional; settings: route intraperitoneal
# [19] = test system: Trypanosoma brucei brucei; assay: Antitrypanosomal activity against Trypanosoma brucei brucei GVR35 infected in NMRI mouse CNS model assessed as survival of mouse at 20 mg/kg, ip for 10 days; type: functional; settings: route intraperitoneal
# [20] = test system: Trypanosoma brucei rhodesiense; assay: Antitrypanosomal activity against wild-type Trypanosoma brucei rhodesiense STIB900 infected in NMRI mouse assessed as survival of mouse at 20 mg/kg, ip for 4 days; type: functional; settings: route intraperitoneal
# [21] = test system: Trypanosoma brucei rhodesiense; assay: Antitrypanosomal activity against wild-type Trypanosoma brucei rhodesiense STIB900 infected in NMRI mouse assessed as cure from infection at 10 mg/kg, ip for 4 days; type: functional, organism-based; design: dose 10 mg/kg
# [22] = test system: Trypanosoma brucei brucei; assay: Antitrypanosomal activity against Trypanosoma brucei brucei GVR35 infected in NMRI mouse CNS model assessed as survival of mouse at 20 mg/kg, ip for 5 days; type: functional; settings: route intraperitoneal
# [23] = test system: Trypanosoma brucei rhodesiense; assay: Antitrypanosomal activity against wild-type Trypanosoma brucei rhodesiense STIB900 infected in NMRI mouse assessed as survival of mouse at 5 mg/kg, ip for 4 days; type: functional; settings: route intraperitoneal
# [24] = test system: Trypanosoma brucei rhodesiense; assay: Antitrypanosomal activity against wild-type Trypanosoma brucei rhodesiense STIB900 infected in NMRI mouse assessed as survival of mouse at 0.5 mg/kg, ip for 4 days; type: functional; settings: route intraperitoneal
# [25] = test system: Trypanosoma brucei rhodesiense; assay: Antitrypanosomal activity against wild-type Trypanosoma brucei rhodesiense STIB900 infected in NMRI mouse assessed as survival of mouse at 10 mg/kg, ip for 4 days; type: functional; settings: route intraperitoneal
# [26] = test system: Trypanosoma brucei rhodesiense; assay: Antitrypanosomal activity against wild-type Trypanosoma brucei rhodesiense STIB900 infected in NMRI mouse assessed as cure from infection at 20 mg/kg, ip for 4 days; type: functional, organism-based; design: dose 20 mg/kg
# [27] = test system: Trypanosoma brucei rhodesiense; assay: Antitrypanosomal activity against wild-type Trypanosoma brucei rhodesiense STIB900 infected in NMRI mouse assessed as survival of mouse at 5 mg/kg, po for 4 days; type: functional
# [28] = test system: Trypanosoma brucei brucei; assay: Antitrypanosomal activity against Trypanosoma brucei brucei GVR35 infected in NMRI mouse CNS model assessed as survival of mouse at 100 mg/kg, po for 5 days; type: functional
# [29] = test system: Trypanosoma brucei rhodesiense; assay: Antitrypanosomal activity against wild-type Trypanosoma brucei rhodesiense STIB900 infected in NMRI mouse assessed as cure from infection at 25 mg/kg, po for 4 days; type: functional, organism-based; design: dose 25 mg/kg
# [30] = test system: Trypanosoma brucei brucei; assay: Antitrypanosomal activity against Trypanosoma brucei brucei GVR35 infected in NMRI mouse CNS model assessed as survival of mouse at 50 mg/kg, po for 5 days; type: functional
# [31] = test system: Trypanosoma brucei brucei; assay: Antitrypanosomal activity against Trypanosoma brucei brucei GVR35 infected in NMRI mouse CNS model assessed as cure from infection at 100 mg/kg, po for 5 days; type: functional, organism-based; design: dose 100 mg/kg
# [32] = test system: Trypanosoma brucei rhodesiense; assay: Antitrypanosomal activity against wild-type Trypanosoma brucei rhodesiense STIB900 infected in NMRI mouse assessed as survival of mouse at 25 mg/kg, po for 4 days; type: functional
# [33] = test system: Trypanosoma brucei brucei; assay: Antitrypanosomal activity against Trypanosoma brucei brucei GVR35 infected in NMRI mouse CNS model assessed as survival of mouse at 75 mg/kg, po for 5 days; type: functional
# [34] = test system: Trypanosoma brucei rhodesiense; assay: Antitrypanosomal activity against wild-type Trypanosoma brucei rhodesiense STIB900 infected in NMRI mouse assessed as survival of mouse at 100 mg/kg, po for 4 days; type: functional
# [35] = test system: Trypanosoma brucei brucei; assay: Antitrypanosomal activity against Trypanosoma brucei brucei GVR35 infected in NMRI mouse CNS model assessed as survival of mouse at 10 mg/kg, po for 10 days; type: functional
# [36] = test system: Trypanosoma brucei brucei; assay: Antitrypanosomal activity against Trypanosoma brucei brucei GVR35 infected in NMRI mouse CNS model assessed as cure from infection at 10 mg/kg, ip for 10 days; type: functional, organism-based; design: dose 10 mg/kg
# [37] = test system: Trypanosoma brucei brucei; assay: Antitrypanosomal activity against Trypanosoma brucei brucei GVR35 infected in NMRI mouse CNS model assessed as survival of mouse at 10 mg/kg, ip for 10 days; type: functional; settings: route intraperitoneal
# [38] = test system: Trypanosoma brucei brucei; assay: Antitrypanosomal activity against Trypanosoma brucei brucei GVR35 infected in NMRI mouse CNS model assessed as cure from infection at 20 mg/kg, ip for 10 days; type: functional, organism-based; design: dose 20 mg/kg
# [39] = test system: Trypanosoma brucei rhodesiense; assay: Antitrypanosomal activity against wild-type Trypanosoma brucei rhodesiense STIB900 infected in NMRI mouse assessed as cure from infection at 100 mg/kg, po for 4 days; type: functional, organism-based; design: dose 100 mg/kg
SMILES,IC50 [1] [µg/mL],Ratio IC50 [2],IC50 [3] [µg/mL],Ratio IC50 [4],Ratio IC50 [5],IC50 [6] [µg/mL],Ratio IC50 [7],IC50 [8] [µg/mL],IC50 [9] [µg/mL],IC50 [10] [µg/mL],Ratio IC50 [11],IC50 [12] [µg/mL],IC50 [13] [µg/mL],Ratio IC50 [14],Ratio IC50 [15],MSD [19] [days],MSD [20] [days],Activity [21],MSD [22] [days],MSD [24] [days],other results
Nc1nc(N)nc(Nc2ccc([As]3SCC(CO)S3)cc2)n1 (stereo not given) [MELARSOPROL],0.0567,14,0.0282,2.3,3.9,0.0031,20.9,0.0014,0.0027,0.0187,42,0.0036,0.0053,5.2,2,,,,,,
N=C(N)c1ccc(-c2ccc(-c3ccc(C(=N)N)cn3)o2)cc1,0.0292,14,0.0225,3.5,3.5,0.0084,9.6,0.0024,0.0057,0.0429,12.4,0.0028,0.0084,15.4,2.4,>128.2,>60,Active,102.5,29,Activity [16]: inactive; Activity [17]: inactive; MSD [18]: >49 days; MSD [23]: >54.5 days; MSD [25]: >60 days; Activity [26]: Active
CO/N=C(\N)c1ccc(-c2ccc(-c3ccc(/C(N)=N\O)cn3)o2)cc1,,,,,,,,,,,,,,,,,,,,,MSD [27]: >39.5 days; MSD [28]: >180 days; Activity [29]: Active; MSD [30]: >157.2 days; Activity [31]: Active; MSD [32]: >60 days; MSD [33]: >164.8 days
CO/N=C(/N)c1ccc(-c2ccc(-c3ccc(/C(N)=N/O)cc3)o2)nc1,,,,,,,,,,,,,,,,,,,,,MSD [27]: >52.75 days; MSD [28]: >180 days; Activity [29]: Active; MSD [34]: >60 days; MSD [32]: >60 days; Activity [35]: Active; MSD [33]: >166 days
N=C(N)c1ccc(-c2ccc(-c3ccc(C(=N)N)cn3)o2)nc1,0.0643,14,0.0679,6.1,5.4,0.0395,10.5,,0.0162,0.106,10,0.006,0.0351,17.8,2.5,>180,>60,Active,>132.3,>31,Activity [36]: inactive; MSD [37]: 95.6 days; Activity [38]: Active; Activity [26]: Active
N=C(NO)c1ccc(-c2ccc(-c3ccc(/C(N)=N\O)cc3)o2)cc1,,,,,,,,,,,,,,,,,,,,,Activity [39]: inactive; MSD [34]: 50 days

# Source: ChEMBL document CHEMBL1649218, “New treatment option for second-stage African sleeping sickness: in vitro and in vivo efficacy of aza analogs of DB289” (Antimicrob Agents Chemother, 2009)
